Measurements reported in paper PMC10940605, “Design, synthesis and in vitro anticancer activity of some new lomefloxacin derivatives” (Scientific Reports, 2024).

Assays:
Experiment in all cases: NCI-60 SRB screen
Assay type in all cases: cell-based
HCC-2998 = details: Homo sapiens; HCC-2998, 10^–5 Molar; read-out: Percent growth inhibition
Summary of the method: (§1)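 Percent growth inhibition at 10^−5 M, 48 h. Sulforhodamine B read-out at […] following cold TCA fixation; Tz plates fixed when compound was added.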

melanoma SK-MEL-5 = details: Homo sapiens; SK-MEL-5, 10^–5 Molar; read-out: Percent growth inhibition
Summary of the method: (§2)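 Single-dose screen at 10^−5 M; cells grown in RPMI 1640 with 2 mM L-glutamine and FBS for 24 h, then exposed to compound for 48 h at 37 °C, 5% CO2. TCA-fixed, SRB-stained, absorbance read at […]; percentage growth inhibition calculated against time-zero and control wells.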

M14 = details: Homo sapiens; M14, 10^–5 Molar; read-out: Percent growth inhibition
Summary of the method: as §1

CCRF-CEM = details: Homo sapiens, 10^–5 Molar, read-out: Percent growth inhibition
Summary of the method: as §1

PC-3 = details: Homo sapiens; PC-3, 10^–5 Molar; read-out: Percent growth inhibition
Summary of the method: as §2

leukemia SR = details: Homo sapiens; SR, 10^–5 Molar; read-out: Percent growth inhibition
Summary of the method: as §1

U251 = details: Homo sapiens, U-251; U251, 10^–5 Molar; read-out: Percent growth inhibition
Summary of the method: as §1

HCT-116 = details: Homo sapiens; HCT-116, 10^–5 Molar; read-out: Percent growth inhibition
Summary of the method: as §1

KM12 = details: Homo sapiens; KM12, 10^–5 Molar; read-out: Percent growth inhibition
Summary of the method: as §2

SW-620 = details: Homo sapiens; SW-620, 10^–5 Molar; read-out: Percent growth inhibition
Summary of the method: as §1

MCF7 = details: Homo sapiens; MCF7, 10^–5 Molar; read-out: Percent growth inhibition
Summary of the method: as §1

ACHN = details: Homo sapiens, 10^–5 Molar, read-out: Percent growth inhibition
Summary of the method: as §2

NCI-H322M = details: Homo sapiens, 10^–5 Molar, read-out: Percent growth inhibition
Summary of the method: as §1

MDA-MB-231/ATCC = details: Homo sapiens, 10^–5 Molar, read-out: Percent growth inhibition
Summary of the method: as §2

SF-539 = details: Homo sapiens; SF-539, 10^–5 Molar; read-out: Percent growth inhibition
Summary of the method: as §1

SN12C = details: Homo sapiens, 10^–5 Molar, read-out: Percent growth inhibition
Summary of the method: as §2

A549/ATCC = details: Homo sapiens, 10^–5 Molar, read-out: Percent growth inhibition
Summary of the method: as §1

UACC-62 = details: Homo sapiens; UACC-62, 10^–5 Molar; read-out: Percent growth inhibition
Summary of the method: as §2

A498 = details: Homo sapiens; A498, 10^–5 Molar; read-out: Percent growth inhibition
Summary of the method: as §2

NCI-H522 = details: Homo sapiens; NCI-H522, 10^–5 Molar; read-out: Percent growth inhibition
Summary of the method: as §1

HCT-15 = details: Homo sapiens; HCT-15, 10^–5 Molar; read-out: Percent growth inhibition
Summary of the method: as §1

RXF 393 = details: Homo sapiens, 48 h; RXF 393, 10^–5 Molar; read-out: Percent growth inhibition
Summary of the method: as §1

EKVX = details: Homo sapiens, 10^–5 Molar, read-out: Percent growth inhibition
Summary of the method: as §1

IGROV1 = details: Homo sapiens, IGROV-1; IGROV1, 10^–5 Molar; read-out: Percent growth inhibition
Summary of the method: as §1

OVCAR-8 = details: Homo sapiens; OVCAR-8, 10^–5 Molar; read-out: Percent growth inhibition
Summary of the method: as §1

CCn1cc(C(=O)NN=Cc2ccccc2)c(=O)c2cc(F)c(N3CCNC(C)C3)c(F)c21 (stereo not drawn) [Compound 3a, N'-Benzylidene-1-ethyl-6,8-difluoro-7-(3-methylpiperazin-1-yl)-4-oxo-1,4-dihydroquinoline-3-carbohydrazide]
inhibition at 10 µM (HCC-2998): 183%
inhibition at 10 µM (melanoma SK-MEL-5): 88.1%
inhibition at 10 µM (M14): 150%
inhibition at 10 µM (CCRF-CEM): 152%
inhibition at 10 µM (PC-3): 51.1%
inhibition at 10 µM (leukemia SR): 115%
inhibition at 10 µM (U251): 192%
inhibition at 10 µM (HCT-116): 42.5%
inhibition at 10 µM (KM12): 189%
inhibition at 10 µM (SW-620): 181%
inhibition at 10 µM (MCF7): 184%
inhibition at 10 µM (ACHN): 43.2%
inhibition at 10 µM (NCI-H322M): 47.5%
inhibition at 10 µM (MDA-MB-231/ATCC): 170%
inhibition at 10 µM (SF-539): 187%
inhibition at 10 µM (SN12C): 38.3%
inhibition at 10 µM (A549/ATCC): 184%
inhibition at 10 µM (UACC-62): 128%
inhibition at 10 µM (A498): 0.4%
inhibition at 10 µM (NCI-H522): 175%
inhibition at 10 µM (HCT-15): 186%
inhibition at 10 µM (RXF 393): 161%
inhibition at 10 µM (EKVX): 65.7%
inhibition at 10 µM (IGROV1): 42%
inhibition at 10 µM (OVCAR-8): 71.6%

CCn1cc(C(=O)NN=Cc2cccc(F)c2)c(=O)c2cc(F)c(N3CCNC(C)C3)c(F)c21 (stereo not drawn) [Compound 3b, 1-Ethyl-6,8-difluoro-N′-(3-fluorobenzylidene)-7-(3-methylpiperazin-1-yl)-4-oxo-1,4-dihydroquinoline-3-carbohydrazide]
inhibition at 10 µM (HCC-2998): 181%
inhibition at 10 µM (melanoma SK-MEL-5): 47.4%
inhibition at 10 µM (M14): 107%
inhibition at 10 µM (CCRF-CEM): 147%
inhibition at 10 µM (PC-3): 30.4%
inhibition at 10 µM (leukemia SR): 129%
inhibition at 10 µM (U251): 174%
inhibition at 10 µM (HCT-116): 28.8%
inhibition at 10 µM (KM12): 127%
inhibition at 10 µM (SW-620): 185%
inhibition at 10 µM (MCF7): 184%
inhibition at 10 µM (ACHN): 25.6%
inhibition at 10 µM (NCI-H322M): 16.6%
inhibition at 10 µM (MDA-MB-231/ATCC): 150%
inhibition at 10 µM (SF-539): 105%
inhibition at 10 µM (SN12C): 104%
inhibition at 10 µM (A549/ATCC): 167%
inhibition at 10 µM (UACC-62): 35.2%
inhibition at 10 µM (A498): 0.84%
inhibition at 10 µM (NCI-H522): 130%
inhibition at 10 µM (HCT-15): 182%
inhibition at 10 µM (RXF 393): 122%
inhibition at 10 µM (EKVX): 49.2%
inhibition at 10 µM (IGROV1): 30.6%
inhibition at 10 µM (OVCAR-8): 105%

CCn1cc(C(=O)NN=Cc2cccnc2)c(=O)c2cc(F)c(N3CCNC(C)C3)c(F)c21 (stereo not drawn) [Compound 3d, 1-Ethyl-6,8-difluoro-7-(3-methylpiperazin-1-yl)-4-oxo-N'-(pyridin-3-ylmethylene)-1,4-dihydroquinoline-3-carbohydrazide]
inhibition at 10 µM (HCC-2998): 50.4%
inhibition at 10 µM (melanoma SK-MEL-5): 34.8%
inhibition at 10 µM (M14): 10.3%
inhibition at 10 µM (CCRF-CEM): 54.3%
inhibition at 10 µM (PC-3): 49.1%
inhibition at 10 µM (leukemia SR): 66.4%
inhibition at 10 µM (U251): 74.6%
inhibition at 10 µM (HCT-116): 66.5%
inhibition at 10 µM (KM12): 20.7%
inhibition at 10 µM (SW-620): 73.9%
inhibition at 10 µM (MCF7): 80.9%
inhibition at 10 µM (ACHN): 13.6%
inhibition at 10 µM (NCI-H322M): 41.9%
inhibition at 10 µM (MDA-MB-231/ATCC): 64.2%
inhibition at 10 µM (SF-539): 68.2%
inhibition at 10 µM (SN12C): 69.4%
inhibition at 10 µM (A549/ATCC): 14.4%
inhibition at 10 µM (UACC-62): 48.6%
inhibition at 10 µM (A498): 40.3%
inhibition at 10 µM (NCI-H522): 61.5%
inhibition at 10 µM (HCT-15): 1.76%
inhibition at 10 µM (RXF 393): 40.7%
inhibition at 10 µM (EKVX): 37.2%
inhibition at 10 µM (IGROV1): 71.7%
inhibition at 10 µM (OVCAR-8): 70%
